According to patent US20170166555A1, “FUNCTIONALISED AND SUBSTITUTED INDOLES AS ANTI-CANCER AGENTS” (Novogen Limited, priority 2013, published 2017):
Read-outs that look alike come from different tables or passages of the source.

Columns and labels:
[1] = system: non-transfected and Tm5NM1 stably transfected MEFs; assay: MTT viability in non-transfected versus Tm5NM1 stably transfected MEFs; type: cell-based, mouse; details: 48 hr, FIG. 1
Experimental: FIG. 1: Activity of selected compounds against Tm5NM1/2 transfected mouse embryonic fibroblasts versus non-transfected MEFs.
Compounds 4001, 4010, 4014, 4008 and 4015 were then screened against non-transfected and Tm5NM1 stably transfected MEFs. Briefly, MEFs were transfected with pEYFP-C1/Tm5NM1 constructs using the Amaxa nucleofector apparatus (program A-023) and MEF nucleofector kit 1 (Lonza) according to the manufacturer's instructions. Cell viability assays were also conducted to assess the anti-proliferative effects of the anti-tropomyosin compounds. Briefly, cells (1×10^3/well) were plated (96-well) and treated (48 hr) with anti-tropomyosin compounds and viability measured using 3-(4,5-dimethylthiazol-2-yl)-2, 5-diphenylterazolium bromide MTT. Cell viability was normalized to control (vehicle alone) and dose-response curves, and half maximal effective concentration (EC50) values were determined using Graph Pad Prism 5 (nonlinear regression sigmoidal dose-response variable slope).

[2] = system: melanoma (SK-Mel-28) cells; assay: Cell viability assay (MTT, 48 hr); type: cell-based; details: Homo sapiens, 48 hr treatment, read-out: IC50 (μM) SKMEL28
Experimental: (§1) Cell viability assays were also conducted to assess the anti-proliferative effects of the anti-tropomyosin compounds 4001-4015. Briefly, cells (1×10^3/well) were plated (96-well) and treated (48 hr) with anti-tropomyosin drug and viability measured using 3-(4,5-dimethylthiazol-2-yl)-2,5-diphenylterazolium bromide MTT. Cell viability was normalized to control (vehicle alone) and dose-response curves, and half maximal effective concentration (EC50) values were determined using Graph Pad Prism 5 (nonlinear regression sigmoidal dose-response variable slope).

[3] = system: neuroblastoma (SH-EP) cells; assay: Cell viability assay (MTT, 48 hr); type: cell-based; details: 48 hr treatment, read-out: IC50 (μM) SHEP
Experimental: as §1

[4] = system: DU145 prostate cancer cells; assay: Anti-proliferative assay, cell-titre luminescent reagent, 72 h (GVK-BIO); type: cell-based; details: Homo sapiens
In short: (§2)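 Cells were seeded, attached over 24 h at 37 °C/5% CO2, then exposed 72 h to 30, 3, 0.3, 0.03 μM or 30, 10, 3, 1, 0.3, 0.1 μM compound, with luminescent viability reagent read after 30 min. IC50 came from linear regression of percent-of-control, or EC50 from sigmoidal variable-slope fit against vehicle.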

[5] = system: SK-N-SH neuroblastoma cells; assay: as above; type: cell-based; details: Homo sapiens
In short: as §2

[6] = system: PC3 prostate cancer cells; assay: as above; type: cell-based
In short: as §2

[7] = system: A549 non-small cell lung carcinoma cells; assay: as above; type: cell-based; details: Homo sapiens, read-out: IC50/μM Lung (NSLC) A549
In short: as §2

[8] = system: CaCo2 colorectal cancer cells; assay: as above; type: cell-based; details: Homo sapiens
In short: as §2

SK-Mel-28 melanoma cells = assay: as above; type: cell-based; details: Homo sapiens
In short: as §2

[9] = system: MDA-MB-231 triple negative breast cancer cells; assay: as above; type: cell-based; details: Homo sapiens
In short: as §2

[10] = system: total actin cytoskeleton in SK-N-SH neuroblastoma cells; assay: Microfilament disruption assay, 488-Atto-Phallodin imaging and filament quantitation; type: cell-based; details: 0-40 μM, 24 h, FIG. 2
Experimental: (§3) FIG. 2: Imaging and quantitation of actin filaments in SK—N—SH neuroblastoma cells treated with compound (A) 4093 and (B) 4113. Cells were stained with 488-Atto-Phallodin and DAPI to visualize the actin filament bundles and the nucleus, respectively. Shown in the top panel is a representative grey scale immunofluorescent image from control (vehicle alone), 5 μM and 10 μM treated cells. […] The coloured lines indicate the detected actin filaments. Also shown is the quantitation of cell number, filament number/cell and filament number/cell area ([…]). […]
(§4) The ability of compounds 4093 and 4113 to disrupt the total actin cytoskeleton (FIG. 2) and to specifically target Tm5NM1-containing actin filaments (FIG. 3) was assessed in vitro using the microfilament disruption assay.
(§5) Briefly, SK-N-SH neuroblastoma cells were seeded at 1800 cells/well in a 384 Perkin Elmer High Content Imaging “View” plate and left to plate down 24 h prior to treatment. […] Images were then exported and changes in the organization and numbers of actin filaments within the cell were quantitated using a linear feature detection algorithm developed by the CSIRO. […] It is these “ridge lines” that correspond to actin filament bundles and allow us to quantitate the number of filaments per cell.

[11] = system: Tm5NM1-containing actin filaments in SK-N-SH neuroblastoma cells; assay: Microfilament disruption assay, γ9d staining imaging and filament quantitation; type: cell-based; details: 0-40 μM, 24 h, FIG. 3
Experimental: as §3, with “FIG. 3:” for “FIG. 2:”, “with γ9d (sheep polycolonal, 1:100) followed by 488-conjugated secondary (1:1000)” for “with 488-Atto-Phallodin”, “the Tm5NM1 containing” for “the actin”
as §4, §5

[12] = DU-145, 72 h, 30, 3, 0.3 and 0.03 μM, linear regression (Tables 2-4)
[13] = SK-N-SH, 30, 3, 0.3 and 0.03 μM, linear regression (Tables 2-4)
[14] = 30, 3, 0.3 and 0.03 μM, linear regression (Tables 2-4)
[15] = A549, 72 h, 30, 3, 0.3 and 0.03 μM, linear regression (Tables 2-4)
[16] = Caco-2, 72 h, 30, 3, 0.3 and 0.03 μM, linear regression (Tables 2-4)
[17] = SK-MEL-28, 72 h, 30, 3, 0.3 and 0.03 μM, linear regression (Tables 2-4)
[18] = MDA-MB-231, 72 h, 30, 3, 0.3 and 0.03 μM, linear regression (Tables 2-4)

Row | IC50 [2] [µM] | IC50 [3] [µM] | IC50 [4, 12] [µM] | IC50 [5, 13] [µM] | IC50 [6, 14] [µM] | IC50 [7, 15] [µM] | IC50 [8, 16] [µM] | IC50 (SK-Mel-28 melanoma cells; [17]) [µM] | IC50 [9, 18] [µM] | IC50 ([4]; DU-145, 72 h, 30, 10, 3, 1, 0.3 and 0.1 μM, nonlinear regression (Table 5)) [µM] | IC50 ([5]; SK-N-SH, 30, 10, 3, 1, 0.3 and 0.1 μM, nonlinear regression (Table 5)) [µM] | IC50 ([6]; 30, 10, 3, 1, 0.3 and 0.1 μM, nonlinear regression (Table 5)) [µM] | IC50 ([7]; A549, 72 h, 30, 10, 3, 1, 0.3 and 0.1 μM, nonlinear regression (Table 5)) [µM] | IC50 ([8]; Caco-2, 72 h, 30, 10, 3, 1, 0.3 and 0.1 μM, nonlinear regression (Table 5)) [µM] | IC50 (SK-Mel-28 melanoma cells; SK-MEL-28, 72 h, 30, 10, 3, 1, 0.3 and 0.1 μM, nonlinear regression (Table 5)) [µM] | IC50 ([9]; MDA-MB-231, 72 h, 30, 10, 3, 1, 0.3 and 0.1 μM, nonlinear regression (Table 5)) [µM] | SMILES | Selectivity: toxicity against primary MEFs versus MEFs stably transfected with Tm5NM1/2 [1] | Disruption of the total actin cytoskeleton [10] | Disruption of Tm5NM1-containing actin filaments [11]
1 | 4.3 | 4.63 | 3.2 | 4.1 | 2.8 | 2.7 | 3 | 3.6 | 3.1 | – | – | – | – | – | – | – | CN(C)CCCn1ccc2cc(Cc3ccc(C(=O)Nc4ccccc4)cc3)ccc21 [Compound 4001, 4-((1-(3-(dimethylamino)propyl)-1H-indol-5-yl)methyl)-N-phenylbenzamide] | less toxicity noted against primary mouse embryonic fibroblasts (MEFs) compared with MEFs stably transfected with Tm5NM1/2 | – | –
2 | 3.4 | 6.4 | 3.4 | 3.6 | 4 | 2.8 | 3.5 | 3.4 | 2.6 | – | – | – | – | – | – | – | Cc1c(C)n(CCCN(C)C)c2ccc(Nc3ccc(C(=O)Nc4ccccc4)cc3)cc12 [Compound 4010, 4-((1-(3-(dimethylamino)propyl)-2,3-dimethyl-1H-indol-5-yl)amino)-N-phenylbenzamide] | less toxicity noted against primary mouse embryonic fibroblasts (MEFs) compared with MEFs stably transfected with Tm5NM1/2 | – | –
3 | 4 | 4.3 | 3.6 | 3 | 3.7 | 2.9 | 3.9 | 3.2 | 2.5 | – | – | – | – | – | – | – | CN(C)CCCn1ccc2cc(Oc3cccc(C(=O)Nc4ccccc4)c3)ccc21 [Compound 4014, 3-((1-(3-(dimethylamino)propyl)-1H-indol-5-yl)oxy)-N-phenylbenzamide] | less toxicity noted against primary mouse embryonic fibroblasts (MEFs) compared with MEFs stably transfected with Tm5NM1/2 | – | –
4 | – | – | – | – | – | – | – | – | – | 5.4 | 1.7 | 11.4 | 5.2 | 4.6 | 0.9 | 2.8 | Cc1c(C)n(CCCN2CCN(C)CC2)c2ccc(CN3CCN(CCc4ccc5c(c4)OCO5)CC3)cc12 [Compound 4113, 5-((4-(2-(benzo[d][1,3]dioxol-5-yl)ethyl)piperazin-1-yl)methyl)-2,3-dimethyl-1-(3-(4-methylpiperazin-1-yl)propyl)-1H-indole] | – | disrupt both the total actin cytoskeleton and Tm5NM1-containing actin filaments in a dose-dependent manner | disrupt both the total actin cytoskeleton and Tm5NM1-containing actin filaments in a dose-dependent manner
